Test system: KK mice
Assay: Plasma glucose lowering effects in hyperglycemic KK mice
Assay type: in vivo, mouse
Settings: male KK mice, 0.3 weight % in food for 1 week
Experimental: Unless otherwise described, mice were bred individually, and food and water were taken ad libitum in the following experiments. For this, F2 food powder (Funahashi Farm) was used. Plasma glucose level in the blood collected from the tail vein of a mouse with a heparin-coated glass tube was determined with the Glucoloader (A&T Corp.).
Male KK mice (purchased from Clea Japan, Inc) were purchased at 6 weeks old and were bred until 19 weeks old through an acclimatisation period and test period. The plasma glucose level of each mouse was determined and the occurrence of hyperglycemia in the mice was confrrmed. The animals with a plasma glucose level of 350 mg/dl and higher were screened and the animals for use in the experiment were selected. The selected mice were divided into a control group and a test compound treated group (n=6/group) matched for body weights and plasma glucose levels.
In the control group, conventional food powder was given-to each mouse, while in the test compound-treated group, the food comprising the food powder (F2) mixed with the test compound (final concentration: 0.3 weight %) was given to each mouse. The mice in both groups were bred for 1 week.
One week after the treatment, the blood glucose level was determined.

O=C(Nc1ccc(OC(F)(F)F)cc1)c1cc([N+](=O)[O-])ccc1Cl [Example 18, N-(4-Trifluoromethyloxyphenyl)-(2-chloro-5-nitrophenyl)carboxamide]
plasma glucose on Day 7 (n=6/group): 315 ± 14 | % of inhibition (vs. control) (plasma glucose on Day 7): 55%

— patent US20030134859A1 (SANKYO COMPANY, LIMITED, priority 2000, published 2003)
